From patent publication US7070892B2, “Imaging members” (Xerox Corporation, priority 2004, dated 2006) come the findings set out here.

This series in a line: solubility of the electron transport component (CFM derivative) in organic solvents. Type of series: physicochemical.

Turning to `CCCCOC(=O)c1cccc2c1-c1ccccc1C2=C(C#N)C#N` [R8 is n-butyl, (4-n-butoxycarbonyl-9-fluorenylidene)malononitrile], the “solubility of the electron transport component” value reads like this: (solvent is butylacetate) 8 grams/liter; (solvent is tetrahydrofuran) 105 grams/liter.

For `CCCCC(CC)COC(=O)c1cccc2c1-c1ccccc1C2=C(C#N)C#N` (stereo not shown) [R8 is 2-ethylhexyl, 9-dicyanomethylenefluorene-4-(2-ethylhexyl)carboxylate], the “solubility of the electron transport component” value is listed as 25 grams/liter (solvent is butylacetate) and 205 grams/liter (solvent is tetrahydrofuran).
